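Results reflect a 48-hour exposure of cells in 96-well plates to compound at five concentrations. GI50 = concentration required for 50% inhibition of growth.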 The source made the active and inactive calls. No stated cut-off is given here; in the data, active = GI50 up to about 1.1 µM and inactive = higher.

Experiment in all cases: NCI anticancer screen, dose series, 48 h
The test system of test [1] is 786-0.
Test [2] has as its system A549.
For test [3], the system named is ACHN.
Test [4] deals with BT-549.
For test [5], the system named is HCC 2998.
Test [6] has as its system HCT-116.
The test system of test [7] is HCT-15.
Test [8] relates to HOP-62.
For test [9], the system named is LOX IMVI.
Test [10] relates to MDA-MB-435.
For test [11], the system named is MDA-N.
For test [12], the system named is Malme-3M.
Test [13] relates to NCI-H23.
The subject of test [14] is OVCAR-3.
Test [15] has as its system OVCAR-8.
The subject of test [16] is PC-3.
Test [17] relates to SF-268.
Test [18] relates to SK-MEL-5.
Test [19] concerns SW-620.
Test [20] relates to UACC-62.

For the molecule `CC1=C(\C=C/C(C)=C/C=C/C(C)=C/C=C/C=C(C)\C=C\C=C(C)/C=C/C2=C(C)CCCC2(C)C)C(C)(C)CCC1`, the GI50 in [1] is > 100 µM (inactive); in test [2] it was > 10 µM (inactive); in [3], > 100 µM (inactive); in test [4], 64.4 µM (inactive); in [5], > 100 µM (inactive); in test [6], 22.1 µM (inactive). For the same molecule, the GI50 in test [7] was greater than 100 µM; in test [8], > 100 µM (inactive); in test [9] it was > 100 µM (inactive); in test [10], 68.9 µM (inactive); in test [11] it was 40 µM (inactive); in test [12], > 100 µM (inactive). Further, the GI50 in test [13] is 34.2 µM (inactive); in test [14], > 100 µM (inactive); in [15], > 100 µM (inactive); in [16], > 100 µM (inactive); in [17], > 100 µM (inactive); in test [18], > 100 µM (inactive). Further, the GI50 in test [19] and in test [20] was > 100 µM (inactive) in each case.

As for `COc1cc([C@@H]2c3cc4c(cc3[C@@H](/N=C/c3ccc(C(=O)O[C@H]5C[C@H]6OC[C@@]6(OC(C)=O)[C@H]6[C@H](OC(=O)c7ccccc7)[C@]7(O)C[C@H](OC(=O)[C@H](OC(=O)c8ccc(/C=N/[C@@H]9c%10cc%11c(cc%10[C@@H](c%10cc(OC)c(O)c(OC)c%10)[C@H]%10C(=O)OC[C@@H]%109)OCO%11)cc8)[C@@H](NC(=O)c8ccccc8)c8ccccc8)C(C)=C([C@@H](OC(C)=O)C(=O)[C@]56C)C7(C)C)cc3)C3COC(=O)C32)OCO4)cc(C)c1O` (stereo not given in full), the GI50 in test [1] was 7.55 µM (inactive); in test [2] it was 13.7 µM (inactive); in [3], 20.8 µM (inactive); in test [4] it was 49.7 µM (inactive); in test [5], > 50 µM (inactive); in test [6] it was 9.08 µM (inactive). Moreover, the GI50 in [7] is 19.2 µM; in test [8], 12.7 µM (inactive); in test [9] it was 22.9 µM (inactive); in test [10] it was 2.33 µM (inactive); in [11] it was 1.82 µM (inactive); in test [12], > 24 µM (inactive). For the same molecule, the GI50 in test [13] is 17.2 µM (inactive); in test [14], 6.85 µM (inactive); in test [15], 17.9 µM (inactive); in test [16], 6.58 µM (inactive); in test [17], > 31.5 µM (inactive); in test [18] it was 5.28 µM (inactive). The GI50 in test [19] was 13.4 µM (inactive); in [20] it was 6.32 µM (inactive).

`Nc1c2c(nc3ccccc13)-c1ccccc1NCCC2`: the GI50 was 16.7 µM (inactive) in test [1]; 47.4 µM (inactive) in test [2]; 36.6 µM (inactive) in test [3]; 50.5 µM (inactive) in [4]; 13.9 µM (inactive) in test [5]; 23.3 µM (inactive) in test [6]. Moreover, the GI50 is 35.6 µM in test [7]; 16.6 µM (inactive) in test [8]; 16.8 µM (inactive) in [9]; 22 µM (inactive) in test [10]; 17.5 µM (inactive) in test [11]; 18 µM (inactive) in test [12]. Moreover, the GI50 in test [13] was 47.3 µM (inactive); in test [14], 78.2 µM (inactive); in test [15], 42.2 µM (inactive); in test [16] it was 20.4 µM (inactive); in [17], 45.1 µM (inactive); in test [18], 15.1 µM (inactive). The GI50 in test [19] was 23.4 µM (inactive); in [20], 18.3 µM (inactive).

The record behind these values is ChEMBL document CHEMBL1201862, “PubChem BioAssay data set” (2004).
